Source: patent US20180243325A1, “METHOD FOR INHIBITING ABSORPTION OF AND/OR PROMOTING EXCRETION OF LIPIDS USING D-PSICOSE” (CJ CHEILJEDANG CORPORATION, priority 2015, published 2018)

How the values were obtained:
Type in all cases: in vivo, C57BL/6J mice
[1] = system: FATP4 (fatty acid transporter 4, 26569); experiment: Small intestine mRNA expression, real-time quantitative PCR: FATP4; conditions: FIG. 8, HFD+5% w/w in diet, 16 weeks
Protocol: (§1) First, 4-week-old male C57BL/6J mice (60 total) were purchased from Jackson Laboratory. The animals were acclimated to the vivarium in a thermo-hygrostat (20-23° C., 45-65%) under a 12 h light/dark cycle and fed a pelletized commercial non-purified diet for 1 week after arrival. The mice were then randomly divided into 6 groups (n=10) and fed the respective experimental diets for 16 weeks: normal diet group (ND, American Institute of Nutrition (AIN)-76 semi-synthetic diet), high-fat diet group (HFD, 20% fat+1% cholesterol based on AIN-76 diet), PSI group (HFD+5% D-psicose, w/w, Sigma Chemical Company), ERY group (HFD+5% erythritol, w/w, Sigma Chemical Company), GLU group (HFD+5% D-glucose, w/w, Sigma Chemical Company), and FRU group (HFD+5% D-fructose, w/w, Sigma Chemical Company). All high-fat diet-fed groups were allowed to ingest the same calories by pair feeding based on the PSI group. The mice had ad libitum access to distilled water during the experimental period. Their feed intakes and body weights were measured daily and biweekly, respectively. The organ weights and the adipose tissue weights of the mice were measured after sacrificing the animals.
(§2) Samples were prepared and analyzed as previously described. Specifically, total RNA was synthesized into cDNA using a QuantiTect Reverse Transcription kit (QIAGEN Gmb1h, Hilden, Germany). RNA expression was quantified with real-time quantitative PCR using a QuantiTect SYBR Green PCR kit (QIAGEN Gmb1h, Hilden, Germany). Primers were designed to detect CD36 (cluster of differentiation 36, 12491), ApoB48 (apolipoprotein B 48, 238055), FATP4 (fatty acid transporter 4, 26569), ABCG5 (ATP-binding cassette sub-family G member5, 27409), and ABCG8 (ATP-binding cassette sub-family G member8, 67470). GAPDH was used as an internal transcription marker. The reaction was performed a total of 40 cycles (each consisting of 15 sec at 94° C., 30 sec at 58° C., 30 sec at 72° C., and 15 sec at 65° C.). Fluorescence signals were monitored every cycle and the resulting threshold cycles (Ct) were analyzed. mRNA expression in each experimental group was quantified using a CFX96 Real time system (Bio-rad, USA).

[2] = system: high-fat diet-induced obese mice; experiment: Lipid excretion in feces; conditions: FIG. 7, HFD+5% w/w in diet, 16 weeks
Protocol: as §1
Lipids were extracted from feces from mice in the normal diet group (ND) and the high-fat diet groups (HFD, ERY, GLU, FRU, and PSI) and dried. Then, each of the dried lipid extracts was dissolved in 1 ml of ethanol. 200 μl of the lipid solution was emulsified in a solution of Triton X-100 and sodium cholate in distilled water. Triglyceride, cholesterol, and fatty acid levels in the feces were analyzed using the same enzymatic kits as those used in Example 2.

[3] = system: high-fat diet-induced obese mice; experiment: Plasma leptin, resistin, adiponectin levels and L:A ratio; conditions: FIG. 3, HFD+5% w/w in diet, 16 weeks
Protocol: as §1, with “animals. Plasma leptin, resistin, and adiponectin levels were measured using Bio-Rad multiplex kits (Hercules, Calif., USA). All samples were assayed in duplicate and analyzed using a Luminex 200 labmap system (Luminex, Austin, Tex., USA). Data analysis was performed using Bio-Plex Manager software version 4.1.1 (Bio-Rad, Hercules, Calif., USA).” for “animals.”

[4] = system: CPT2 (Carnitine palmitoyltransferase 2, 12896); experiment: Hepatic mRNA expression, real-time quantitative PCR: CPT2; conditions: FIG. 6, liver, HFD+5% w/w in diet, 16 weeks
Protocol: as §1
as §2, with “FAS” for “CD36 (cluster of differentiation 36, 12491), ApoB48 (apolipoprotein B 48, 238055), FATP4”, “synthase, 14101), ACC1 (Acetyl-CoA carboxylase 1, 107476), CPT1α (Carnitine palmitoyltransferase 1α, 12894),” for “transporter 4, 26569), ABCG5 (ATP-binding cassette sub-family G member5, 27409),”, “CPT2 (Carnitine palmitoyltransferase 2, 12896).” for “ABCG8 (ATP-binding cassette sub-family G member8, 67470).”

SMILES | mRNA expression level of FATP4 in the small intestine [1] | cholesterol level in the feces [2] | fatty acid level in the feces [2] | triglyceride level in the feces [2] | leptin:adiponectin ratio (L:A ratio) [3] | plasma leptin level [3] | plasma resistin level [3] | hepatic mRNA expression level of CPT2 [4] | mRNA expression level of FATP4 in the small intestine ([1]; listed as D-psicose)
O=C(CO)[C@@H](O)[C@H](O)[C@H](O)CO [FRU, D-fructose] | significantly higher | significantly higher than those from the normal diet group | significantly higher than those from the normal diet group | significantly higher than those from the normal diet group | increased significantly compared to those in the ND group | increased significantly compared to those in the ND group | increased significantly compared to those in the ND group | significantly lower than those in the ND group | –
O=C[C@H](O)[C@@H](O)[C@H](O)[C@H](O)CO [GLU, D-glucose] | significantly higher | significantly higher than those from the normal diet group | significantly higher than those from the normal diet group | significantly higher than those from the normal diet group | increased significantly compared to those in the ND group | increased significantly compared to those in the ND group | increased significantly compared to those in the ND group | significantly lower than those in the ND group | –
OC[C@@H](O)[C@@H](O)CO [ERY, erythritol] | significantly higher | significantly higher than those from the normal diet group | significantly higher than those from the normal diet group | significantly higher than those from the normal diet group | increased significantly compared to those in the ND group | increased significantly compared to those in the ND group | increased significantly compared to those in the ND group | significantly lower than those in the ND group | –
O=C(CO)[C@H](O)[C@H](O)[C@H](O)CO [PSI, D-psicose] | significantly lower in the PSI group than those in other high-fat diet groups | significantly higher than those from other high-fat diet groups | significantly higher than those from other high-fat diet groups | significantly higher than those from other high-fat diet groups | reduced considerably to levels similar to those in the ND group | reduced considerably to levels similar to those in the ND group | reduced considerably to levels similar to those in the ND group | much significantly lower than those in the ND group | reduces mRNA expression
